In general, inhibition refers to the drop in the measured response relative to a control, in per cent. Low readings indicate a response near the control, high ones a response far below the control. In general, pIC50 refers to −log10 of the IC50, conventionally taken in molar units. Low values mean a large IC50, high ones a small IC50.

pIC50: −log10 of the molar value.

These results are taken from ChEMBL document CHEMBL1641599, “Design of novel N-phenylnicotinamides as selective cyclooxygenase-1 inhibitors” (Bioorg Med Chem Lett, 2011).

One assay deals with T1, Prostaglandin G/H synthase 1 (Ovis aries) (UniProt P05979).
T1 sequence (whole entry): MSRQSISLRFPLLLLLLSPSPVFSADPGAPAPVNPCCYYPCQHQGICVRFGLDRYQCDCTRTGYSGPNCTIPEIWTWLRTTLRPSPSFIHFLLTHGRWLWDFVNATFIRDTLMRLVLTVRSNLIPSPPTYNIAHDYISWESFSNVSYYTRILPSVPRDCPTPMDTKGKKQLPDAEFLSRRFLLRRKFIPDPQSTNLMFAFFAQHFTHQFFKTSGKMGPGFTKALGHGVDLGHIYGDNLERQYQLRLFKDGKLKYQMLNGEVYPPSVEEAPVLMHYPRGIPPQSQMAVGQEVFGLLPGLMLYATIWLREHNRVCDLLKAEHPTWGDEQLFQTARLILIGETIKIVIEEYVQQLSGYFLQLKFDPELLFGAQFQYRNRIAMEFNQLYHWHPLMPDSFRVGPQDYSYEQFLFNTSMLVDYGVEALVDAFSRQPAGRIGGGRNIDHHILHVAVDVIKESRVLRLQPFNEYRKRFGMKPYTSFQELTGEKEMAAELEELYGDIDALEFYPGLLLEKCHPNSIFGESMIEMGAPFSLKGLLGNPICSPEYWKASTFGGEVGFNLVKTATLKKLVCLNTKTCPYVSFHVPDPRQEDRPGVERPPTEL
In words: Inhibition of ovine COX1 at 100 uM after 5 mins by microplate reader assay.
For `Cc1ccc(NC(=O)c2cccnc2O)cc1`, the inhibition came to 28%. On the same count and under the same terms, with `COc1ccc(NC(=O)c2ccc(C)nc2)cc1` the figure was 26%; with `COc1ccc(NC(=O)c2cnc(O)c(Cl)c2)cc1`, 64%. Same read-out and setting: with `O=C(Nc1ccc(Cl)cc1Cl)c1cnc(O)c(Cl)c1` the figure was 72%; with `O=C(Nc1ccc(Cl)cc1)c1cnc(O)c(Cl)c1`, 84%. With `Cc1ccc(C(=O)Nc2ccc(Br)cc2)cn1`, the inhibition was found to be 35%. On the same count and under the same terms, under `COc1ccc(NC(=O)c2ccc(O)nc2)cc1` stands 53%; under `Cc1ccc(NC(=O)c2cnc(O)c(Cl)c2)cc1`, 50%; under `O=C(Nc1cc(Cl)cc(Cl)c1)c1cnc(O)c(Cl)c1`, 63%. The same measure, in the same setting: under `O=C(Nc1ccc(Br)cc1)c1cnc(O)c(Cl)c1` stands 58%; under `COc1ccc(NC(=O)c2cccnc2O)cc1`, 42%; under `O=C(Nc1ccc(F)cc1)c1ccc(Cl)nc1`, 41%. The same measure, in the same setting: with `O=C(Nc1ccc(F)cc1)c1cccnc1O` the figure was 64%.

On to `O=C(Nc1cccc(Cl)c1)c1cccnc1O`, for which the inhibition was found to be 35%. The same measure, in the same setting: with `Cc1ccc(C(=O)Nc2ccc(F)cc2)cn1` the figure was 59%.

`O=C(Nc1cc(Cl)cc(Cl)c1)c1cnc(Cl)c(Cl)c1` displayed an inhibition of 34%.

For the compound `O=C(Nc1ccc(Cl)cc1Cl)c1cncc(Br)c1`, the inhibition was 19%. On the same count and under the same terms, with `Cc1ccc(NC(=O)c2cnc(Cl)c(Cl)c2)cc1` the figure was 37%. Same read-out and setting: with `Cc1ccc(NC(=O)c2ccc(Cl)nc2)cc1` the figure was 25%; with `Cc1ccc(NC(=O)c2ccc(C)nc2)cc1`, 10%; with `COc1ccc(NC(=O)c2cncc(Br)c2)cc1`, 0%. Still for that read-out and setting: with `Cc1ccc(C(=O)Nc2ccc(Cl)cc2)cn1` the figure was 45%; with `O=C(Nc1ccc(Cl)cc1)c1cncc(Br)c1`, 13%. For `O=C(Nc1ccc(Cl)cc1)c1ccc(Cl)nc1`, the inhibition is 42%. `COc1ccc(NC(=O)c2ccc(Cl)nc2)cc1` yielded an inhibition of 38%.

Regarding `O=C(Nc1ccc(F)cc1)c1cnc(Cl)c(Cl)c1`, the inhibition turned out to be 45%. Compound `O=C(Nc1ccc(Br)cc1)c1cccnc1O` returned an inhibition of 47%. Still for that read-out and setting: with `O=C(Nc1ccc(F)cc1)c1ccc(O)nc1` the figure was 78%; with `O=C(Nc1ccc(Br)cc1)c1cnc(Cl)c(Cl)c1`, 33%; with `Cc1ccc(NC(=O)c2ccc(O)nc2)cc1`, 40%. On the same count and under the same terms, under `O=C(Nc1ccc(Br)cc1)c1ccc(O)nc1` stands 64%. On the same count and under the same terms, with `O=C(Nc1ccc(Cl)cc1)c1ccc(O)nc1` the figure was 75%; with `O=C(Nc1ccc(Cl)cc1)c1cccnc1O`, 60%.

As to `O=C(Nc1ccc(Br)cc1)c1ccc(Cl)nc1`, the inhibition turned out to be 18%. Compound `Cc1ccc(C(=O)Nc2ccc(Cl)cc2Cl)cn1` yielded an inhibition of 38%. For the compound `Cc1ccc(C(=O)Nc2cc(Cl)cc(Cl)c2)cn1`, the inhibition is 20%. Same read-out and setting: under `O=C(Nc1ccc(F)cc1)c1cnc(O)c(Cl)c1` stands 90%; under `O=C(Nc1ccc(Cl)cc1)c1cnc(Cl)c(Cl)c1`, 42%.

`O=C(Nc1ccc(Cl)cc1Cl)c1cnc(Cl)c(Cl)c1` came in with an inhibition of 40%. Compound `O=C(Nc1ccc(Br)cc1)c1cncc(Br)c1` yielded an inhibition of 5%.

Another assay concerns the target T2, Prostaglandin G/H synthase 1 (Ovis aries, UniProt P05979).
T2 sequence (P05979 whole entry): T1 sequence (whole entry)
In words: Inhibition of ovine COX1 after 5 mins by microplate reader assay.
As to `O=C(Nc1ccc(Cl)cc1Cl)c1cnc(O)c(Cl)c1`, the pIC50 was 4.80. Same read-out and setting: with `O=C(Nc1ccc(F)cc1)c1ccc[nH]c1=O` the figure was 4.49; with `COc1ccc(NC(=O)c2ccc(=O)[nH]c2)cc1`, 4.07; with `O=C(Nc1cc(Cl)cc(Cl)c1)c1cnc(O)c(Cl)c1`, 4.54. On the same count and under the same terms, with `O=C(Nc1ccc(Br)cc1)c1cnc(O)c(Cl)c1` the figure was 4.13; with `Cc1ccc(C(=O)Nc2ccc(F)cc2)cn1`, 4.15; with `O=C(Nc1ccc(Cl)cc1)c1c[nH]c(=O)c(Cl)c1`, 5.57. The same measure, in the same setting: with `Cc1ccc(NC(=O)c2c[nH]c(=O)c(Cl)c2)cc1` the figure was 4.02. The compound `O=C(Nc1ccc(Br)cc1)c1ccc(=O)[nH]c1` had a pIC50 of 4.52.

In the case of `O=C(Nc1ccc(F)cc1)c1c[nH]c(=O)c(Cl)c1`, the pIC50 is 6.17. This pIC50 is 1.65 log units higher than that of the compound before.

Turning to `O=C(Nc1ccc(F)cc1)c1ccc(O)nc1`, the pIC50 was 5.46. For `O=C(Nc1ccc(Cl)cc1)c1ccc(O)nc1`, the pIC50 is 5.04.

`COc1ccc(NC(=O)c2c[nH]c(=O)c(Cl)c2)cc1` had a pIC50 of 4.36.

In the case of `O=C(Nc1ccc(Cl)cc1)c1cccnc1O`, the pIC50 was 4.55. This pIC50 and that of the compound before are within 0.2 log units of each other.
